Experimental findings from ChEMBL document CHEMBL1141903, “Synthesis and evaluation of CCR5 antagonists containing modified 4-piperidinyl-2-phenyl-1-(phenylsulfonylamino)-butane” (Bioorg Med Chem Lett, 2005) are described below.

As a reminder, the IC50 is the concentration needed to halve the response being measured. Higher therefore signals a need for much substance. In general, IC90 refers to the concentration at which the effect reaches the 90% level. A low value points to an effect from little substance.

Test [1] concerns the target C-C chemokine receptor type 5 (Homo sapiens, UniProt P51681). Put plainly: Inhibitory concentration against human C-C chemokine receptor type 5 in CHO cells with [125I]-MIP-1 alpha radioligand. Type of test: cell-based.
In test [2] the test system is Human immunodeficiency virus 1. The experiment in a line: Antiviral activity in an in vitro HIV replication assay. The class given is functional, organism-based.

Sequence of C-C chemokine receptor type 5 (P51681 whole entry): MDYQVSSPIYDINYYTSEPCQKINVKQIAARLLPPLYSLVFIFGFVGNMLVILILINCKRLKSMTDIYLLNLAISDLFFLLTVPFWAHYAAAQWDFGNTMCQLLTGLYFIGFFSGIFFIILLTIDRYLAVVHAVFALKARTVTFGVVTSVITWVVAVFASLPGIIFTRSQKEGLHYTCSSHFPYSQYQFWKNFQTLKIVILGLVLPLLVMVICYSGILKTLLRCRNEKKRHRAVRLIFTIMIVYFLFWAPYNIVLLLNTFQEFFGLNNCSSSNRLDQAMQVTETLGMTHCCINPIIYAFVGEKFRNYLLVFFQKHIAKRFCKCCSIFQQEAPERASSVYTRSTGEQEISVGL

The compound `CN(CC(C)(CCN1CCC2C(CCN2C(=O)OC(C)(C)C)C1)c1ccccc1)S(=O)(=O)c1ccccc1` (single isomer, unassigned; isomer A) had an IC50 in test [1] above 2000 nM.
Same read-out and setting: the same measure for `CN(C[C@@H](CCN1CCC(N2C[C@H](c3ccccc3)OC2=O)CC1)c1ccccc1)S(=O)(=O)c1ccccc1`: above 100 nM.
In test [1], `C[C@H]1[C@@H](c2ccccc2)OC(=O)N1C1CCN(CC[C@H](CN(C)S(=O)(=O)c2ccccc2)c2ccccc2)CC1` gave an IC50 of 36.7 nM.
Same read-out and setting: under `CN(C[C@@H](CCN1CCC2C(CCN2C(=O)OC(C)(C)C)C1)c1ccccc1)S(=O)(=O)c1ccccc1` (some centres undefined) stands 16 nM.
`CN(C[C@](C)(CCN1CCC2C(CCN2C(=O)OCc2ccc([N+](=O)[O-])cc2)C1)c1ccccc1)S(=O)(=O)c1ccccc1` (mixture of isomers) returned an IC90 in test [2] (Human immunodeficiency virus 1) of 111 nM. The same compound displayed an IC50 in test [1] of 3.6 nM.
The corresponding values for `CN(C[C@@](C)(CCN1CCC2C(CCC(=O)N2Cc2ccccc2)C1)c1ccccc1)S(=O)(=O)c1ccccc1` (some centres undefined) are 333 nM and 10 nM.
The corresponding values for `CN(C[C@@](C)(CCN1CCC2C(CCN2C(=O)OC(C)(C)C)C1)c1ccccc1)S(=O)(=O)c1ccccc1` (mixture of isomers) are 111 nM and 11 nM.
In the same order, the values of `CN(C[C@@](C)(CCN1CCC2C(CCN2C(=O)OCc2ccccc2)C1)c1ccccc1)S(=O)(=O)c1ccccc1` (mixture of isomers) are above 300 nM and 9 nM.
In turn, `CN(C[C@@](C)(CCN1CCC2NCCC2C1)c1ccccc1)S(=O)(=O)c1ccccc1` (mixture of isomers) showed an IC50 in test [1] above 2000 nM.
Same read-out and setting: the same measure for `C[C@@H]1[C@@H](c2ccccc2)OC(=O)N1C1CCN(CC[C@H](CN(C)S(=O)(=O)c2ccccc2)c2ccccc2)CC1`: 350 nM.
On to `CN(CC(C)(CCN1CCC2C(CCN2C(=O)OCc2ccc([N+](=O)[O-])cc2)C1)c1ccccc1)S(=O)(=O)c1ccccc1` (single isomer, unassigned; isomer B), for which the IC90 in test [2] was 33 nM. Moreover, in test [1], the IC50 stood at 2 nM.
Compound `CN1C(=O)CCC2CN(CC[C@](C)(CN(C)S(=O)(=O)c3ccccc3)c3ccccc3)CCC21` (mixture of isomers) gave a 90% effect concentration (IC90) in test [2] (Human immunodeficiency virus 1) above 300 nM. Also, the IC50 in test [1] was 28 nM.
`CN(CC(C)(CCN1CCC2C(CCN2C(=O)OCc2ccc([N+](=O)[O-])cc2)C1)c1ccccc1)S(=O)(=O)c1ccccc1` (single isomer, unassigned; isomer A) had an IC90 in test [2] of 300 nM. Further, the IC50 in test [1] worked out at 21 nM.
In test [1], `CN(C[C@@H](CCN1CCC(N2C[C@@H](c3ccccc3)OC2=O)CC1)c1ccccc1)S(=O)(=O)c1ccccc1` returned an IC50 of 31.9 nM.
Take `CN(CC(C)(CCN1CCC2C(CCN2C(=O)OC(C)(C)C)C1)c1ccccc1)S(=O)(=O)c1ccccc1` (single isomer, unassigned; isomer B): the 90% effect level in test [2] (Human immunodeficiency virus 1) (IC90) was put at 100 nM. Besides, the half-maximal inhibitory concentration (IC50) in test [1] came out at 2 nM.
`C=CCN(C(=O)OCc1ccc([N+](=O)[O-])cc1)C1CCN(CC[C@](C)(CN(C)S(=O)(=O)c2ccccc2)c2ccccc2)CC1` gave a 90% effect concentration (IC90) in test [2] (Human immunodeficiency virus 1) of 3 nM. In addition, in test [1], the IC50 amounted to 1 nM.
As to `CN(C[C@@](C)(CCN1CCC2C(CCN2C(=O)Cc2ccccc2)C1)c1ccccc1)S(=O)(=O)c1ccccc1` (mixture of isomers), the IC90 in test [2] (Human immunodeficiency virus 1) stood at 111 nM. The IC50 in test [1] is 6.4 nM.
As for `CN(C[C@@](C)(CCN1CCC2C(CCC(=O)N2Cc2ccc([N+](=O)[O-])cc2)C1)c1ccccc1)S(=O)(=O)c1ccccc1` (mixture of isomers), the IC90 in test [2] (Human immunodeficiency virus 1) amounted to 333 nM. Besides, the IC50 in test [1] was determined as 5.3 nM.
